The values below are quoted from earlier work in patent publication US10905651B1, “Zeinmersome nanocarriers for drug delivery to the liver” (King Abdulaziz University, priority 2020, dated 2021).

The conditions of this data set: cited from earlier work.

For the molecule `CCCc1nc(C(C)(C)O)c(C(=O)O)n1Cc1ccc(-c2ccccc2-c2nnn[nH]2)cc1` [olmesartan], the “oral bioavailability of olmesartan” value (Kobayashi et al. 2000) is 4.5%. Also, under “following IV administration”, the “volume of distribution (Vd)” value was 15 to 25 L.
